In patent US8614208B2, “Fused heterocyclic ring derivative and use thereof” (Takeda Pharmaceutical Company Limited, priority 2009, dated 2013) one finds inhibition data, which are given here for three compounds.

This assay deals with T1, Smo (Mus musculus, UniProt P56726).
T1 construct: endogenous in cells; host or cells: NIH-3T3 cells stably carrying the Gli reporter plasmid
T1 sequence (P56726 33-793): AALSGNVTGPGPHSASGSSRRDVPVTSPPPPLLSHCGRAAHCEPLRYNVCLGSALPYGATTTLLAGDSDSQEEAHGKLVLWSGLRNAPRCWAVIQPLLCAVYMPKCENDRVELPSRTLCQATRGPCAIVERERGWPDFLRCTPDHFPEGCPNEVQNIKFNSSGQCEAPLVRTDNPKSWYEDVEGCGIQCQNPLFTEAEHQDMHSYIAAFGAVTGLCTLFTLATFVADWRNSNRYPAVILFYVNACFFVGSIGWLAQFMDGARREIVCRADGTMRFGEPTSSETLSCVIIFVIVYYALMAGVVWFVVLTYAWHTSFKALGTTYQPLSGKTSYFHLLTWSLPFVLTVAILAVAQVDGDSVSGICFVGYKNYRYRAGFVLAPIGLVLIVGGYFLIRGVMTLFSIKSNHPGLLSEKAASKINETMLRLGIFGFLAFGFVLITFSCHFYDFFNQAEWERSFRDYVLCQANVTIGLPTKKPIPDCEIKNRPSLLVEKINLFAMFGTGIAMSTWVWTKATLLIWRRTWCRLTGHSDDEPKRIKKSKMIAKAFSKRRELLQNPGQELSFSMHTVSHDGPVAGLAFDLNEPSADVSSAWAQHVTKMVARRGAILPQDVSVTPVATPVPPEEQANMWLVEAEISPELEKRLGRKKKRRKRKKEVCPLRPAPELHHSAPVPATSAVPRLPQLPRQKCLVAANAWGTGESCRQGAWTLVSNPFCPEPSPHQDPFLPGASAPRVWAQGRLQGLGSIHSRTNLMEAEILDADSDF
Briefly: Gli reporter luciferase assay in NIH-3T3/Gli reporter cells stimulated with mouse Shh-N end fragment. In kind it is cell-based. Conditions: NIH3T3; 1 μM compound; NIH-3T3/Gli reporter cells with mouse Shh-N culture supernatant, 48 hr; luciferase activity, control without compound as 100; read-out: inhibitory rate (%) at 1 μM. The procedure:
Gli reporter plasmid was constructed by inserting 8×Gli-binding site and chicken δ-crystalline promoter into the upstream of luc+ of pGL3 (Promega).
prepared in reference to the base sequence described in GenBank accession No.; X02187, and chicken genome DNA (Clontech) as a template. PCR reaction was performed using Pfu Turbo (Stratagene) and following the attached protocol. The obtained 108 bp fragment was digested with restriction enzymes BglII and HindIII, and inserted into BglII-HindIII site of pGL3 to give plasmid pGL3/δ-cry promoter.
As 8×Gli-binding site, a sequence containing eight 9-bp Gli bound consensus sequences (GACCACCCA) described in Yoon et al., J. Biol. Chem., vol. 273, pages 3496-3501 (1998) was prepared from synthetic DNA. That is, two synthetic DNAs,
were heat treated at 95° C. for 2 minutes, and incubated at 37° C. for 1 hr for annealing to give a double stranded DNA of the above-mentioned two synthetic DNAs. The obtained double stranded DNA was digested with restriction enzymes BglII and KpnI, and the obtained DNA fragment was inserted into BglII-KpnI site of pGL3/δ-cry promoter to construct plasmid pGL3/δ-cry promoter, 8×Gli binding site, i.e., Gli reporter plasmid.
HEK293 cells were grown in D-MEM medium (Invitrogen) containing 10% fetal bovine serum in a 10 cm dish and pcDNA3.1/mShh-N was introduced into the cells using FuGENE6 (Roche Applied Science). Thereafter, the HEK293 cells were cultured in a carbon dioxide gas incubator at 37° C. for 24 hours, and the medium was exchanged with D-MEM medium (Invitrogen) containing 2% fetal bovine serum. After culturing for 48 hr, a culture supernatant containing recombinant type mouse Shh-N end fragment was obtained by filtration using a filter ([…]).
Using D-MEM (Invitrogen) containing 10% fetal bovine serum, expression plasmid pcDNA3.1 and Gli reporter plasmid (pGL3/δ-cry promoter, 8×Gli binding site) produced by the method of Experimental Example 1 were introduced into NIH-3T3 cells grown in a 10 cm dish by the use of FuGENE6 (Roche Applied Science).
After culture for 24 hr, the cells were recovered, suspended in D-MEM medium containing 10% fetal bovine serum and supplemented with Geneticin (Life Technologies Oriental, Inc.) to a final concentration of 500 μg/ml, diluted to 10^4 cells/ml, plated on a 96 well plate, and cultured in a carbon dioxide gas incubator at 37° C. to give Geneticin resistant transformed cell line.
The obtained transformed cell line was cultured in a 96 well plate, mouse Shh-N end fragment obtained in Experimental Example 3 was added, and NIH-3T3/Gli reporter cell, which is a cell line capable of induction of luciferase expression, was selected.
NIH-3T3/Gli reporter cells cultured in D-MEM (Invitrogen) containing 10% fetal bovine serum were plated in a 96 well white plate at 1×10^4 cells/well, and cultured overnight in a carbon dioxide gas incubator at 37° C. The medium was removed, a compound (50 μl) and culture supernatant of mouse Shh-N end fragment-expressing HEK293 (D-MEM medium containing 2% fetal bovine serum, 50 μl) were added, and the cells were cultured for 48 hr in a carbon dioxide gas incubator at 37° C. Bright-Glo (Promega, 50 μl) was added, and the mixture was stirred, after which luciferase activity was measured by EnVision (PerkinElmer). The inhibition rate was calculated based on the luciferase activity of the control without addition of the compound as 100.
As for `Cc1nc2c(c(OCC(F)(F)F)c(C(=O)NC3CCN(C(=O)CO)CC3)n2C)c(=O)n1CCc1ccc(F)cc1` [Example 15, 3-[2-(4-fluorophenyl)ethyl]-N-[1-(hydroxyacetyl)piperidin-4-yl]-2,7-dimethyl-4-oxo-5-(2,2,2-trifluoroethoxy)-4,7-dihydro-3H-pyrrolo[2,3-d]pyrimidine-6-carboxamide], the inhibition at 1 µM was 97%. The value for `Cc1nc2c(c(OCC(F)(F)F)c(C(=O)NC3CCN(C(=O)CO)CC3)n2C)c(=O)n1CC(=O)c1ccccc1` [Example 1, N-[1-(hydroxyacetyl)piperidin-4-yl]-2,7-dimethyl-4-oxo-3-(2-oxo-2-phenylethyl)-5-(2,2,2-trifluoroethoxy)-4,7-dihydro-3H-pyrrolo[2,3-d]pyrimidine-6-carboxamide] was 98%. The value for `Cc1nc2c(c(OCC(F)(F)F)c(C(=O)NC3CCN(C(=O)CO)CC3)n2C)c(=O)n1Cc1ccc(Cl)cc1` [Example 9, 3-(4-chlorobenzyl)-N-[1-(hydroxyacetyl)piperidin-4-yl]-2,7-dimethyl-4-oxo-5-(2,2,2-trifluoroethoxy)-4,7-dihydro-3H-pyrrolo[2,3-d]pyrimidine-6-carboxamide] was 95%.
